The values that follow are results of earlier work, collected in patent publication US20240165064A1, “LONG-LASTING RESORBABLE SUBCUTANEOUS IMPLANT WITH PROLONGED RELEASE OF PRE-CONCENTRATED PHARMACOLOGICALLY ACTIVE SUBSTANCE IN POLYMER FOR THE TREATMENT OF HYPOTHYROIDISM, AND METHOD” (priority 2021, published 2024).

The data set relates to patients with primary hypothyroidism.
Setting [1] is: T3 group compared to T4 group, 6 weeks.

With `N[C@@H](Cc1cc(I)c(Oc2ccc(O)c(I)c2)c(I)c1)C(=O)O` [T3, triiodothyronine], where the note is “14 patients, three times a day for 6 weeks, T3 group compared to T4 group”, the “weight lost on average more than the group receiving T4 treatment” value is 1.8 ± 1.9 kg. Moreover, under setting [1], the “decrease in low density cholesterol (non-HDL)” value is recorded as 13.3±12.1%, the “decrease in total cholesterol” value is 10.9±10.0% and the “reduction in apolipoprotein B” value is 18.3±28.6%. Moreover, the side effects result (T3 treatment compared to T4 treatment, 6 weeks) is “without presenting significant side effects”.
